Consider 26 compounds from publication PMC9147790, “Synthesis of Coumarin Derivatives: A New Class of Coumarin-Based G Protein-Coupled Receptor Activators and Inhibitors” (Polymers, 2022).

Where two headings read alike, the source gives them in different places.

As a reminder, the IC50 is the midpoint of a concentration-inhibition curve.

Test [1] has as its system mouse GPCRs. Briefly: DAS-ELISA evaluation of coumarin derivatives on GPCRs (inhibition/activation). In kind it is biochemical. Particulars: for IC50: concentration achieving 50% inhibition of the GPCRs' standard at 10 ng/L; for IC50 / EC50: mean of two independent experiments ± SD; for EC50: concentration achieving 50% activation of the GPCRs' standard at 10 ng/L; for IC50(nM) (% INHIBITION): % inhibition (inhibition rate): value in parentheses beside the > IC50 bound, daphnetin: at 10 ng/L; for EC50(nM) (% Activation): % Activation: value in parentheses beside the > EC50 bound; for GPCR activation potency (in words) / GPCRs-inhibitory activity (in words): DAS-ELISA. The protocol:
All chemicals and reagents used in the study were commercially available and used as received. Thin-layer chromatography (TLC) and column chromatography (300–400 mesh) were achieved using instruments from Qingdao Makall Group Co., Ltd. (Qingdao, China). ^1H NMR and ^13C NMR spectra were recorded on a Bruker DRX-500 (^1H/^13C, 500 MHz/125 MHz) spectrometer (Bruker, Bremerhaven, Germany) or a JEOL 400YH (^1H/^13C, 400 MHz/100 MHz) and chemical shifts were given in δ with the TMS as an internal reference. The ESI-MS spectroscopy was measured on an Advantage Max LCQ Thermo-Finnigan mass spectrometer. The ELISA kit was purchased from Shanghai Fusheng Industry Co., Ltd. (Shanghai, China), and the standard in the kit was Class B GPCRs.
All the synthesized coumarin derivatives were dissolved in 500 μL of DMSO, and then diluted to 1 mL by distilled water to get 1 mg/mL of stock solution. Finally, the stock solution was diluted to 1000 μg/L, 10 μg/L, 0.1 μg/L, and 0.001 μg/L in turn and stored in a refrigerator at 4 ℃ for reserve.
The inhibitory/activation activities of all of the synthesized coumarin derivatives on GPCRs were evaluated through incubation using mouse GPCRs provided by the ELISA kit (Shanghai Fusheng Industrial Co., Ltd. Shanghai, China). Other components of the kit included a water solution (30 times concentrated), a HRP conjunction reagent, a sample diluent, a standard diluent, standard, a chromogenic reagent A, a chromogenic reagent B, and a stop solution.
The 15 μL of stock solution and 15 μL of diluted standard solution were thoroughly mixed and incubated at 37 ℃ for 10 mins to prepare a reaction solution. The assay was conducted according to the kit protocol, that is, by adding the 25 μL of reaction solution to a 96-well enzyme-labeled plate containing solid phase anti-GPCRs antibodies. Then the plate was incubated for 30 mins at 37 ℃. Then, 25 μL of Chromogener A and 25 μL of Chromogener B were then added to react. Finally, 25 μL of the termination solution was added to each well to terminate the reaction and the mixture was fully mixed. Derivatives were tested in four different concentrations: 10 ng/L, 1 ng/L, […], and 10 μg/L. A diluent was prepared, dissolved and diluted with the other components of the kit according to the instructions in the kit, and a termination solution was added to the reaction. Then, the OD value was obtained by a microplate reader in 15 mins. All the derivatives were set into two independent experimental groups, and the inhibition of GCPRs, which was expressed as a percentage, was based on these groups.
Inhibition rate = [OD(positive) − OD(test compound)]/[OD(positive) − OD(blank)] ∗ 100%.
IC50/EC50 were obtained from Modified Karber formula [66] as the following: lgρ=Xm−IP−3−Pm−Pn/4
ρ: Concentration of compounds; Xm: Maximum dose; I = (Minimum inhibition rate)/Adjacent dose.
P: Sum of inhibition rates; Pm: Maximum inhibition rate; Pn: Minimum inhibition rate.
All values are the mean of two independent experiments ± SD.
A general note: An ELISA detects its analyte on a solid surface through an enzyme-linked reagent.

Test [2] relates to mouse GPCRs. Details: method as in PMID 33142412. To be noted: earlier work shown in Figure 2; cited from earlier work.

In the test on mouse GPCRs [1], “4-Benzyl-7-ethoxy-4-methyl-2H-chromen-2-one [Derivative 23]” displayed an IC50 of 0.76 ± 0.7 nM. For the compound `Cc1cc(=O)oc2c(O)c(O)ccc12` [4a, reference compound], in the test with mouse GPCRs [1], the EC50 was found to be 2.65 ± 0.25 nM. For the compound `O=c1ccc2ccc(O)c(O)c2o1` [Daphnetin, daphnetin, reference compound], in the test on mouse GPCRs [1], the IC50 was over 10 nM and the “IC50(nM) (% INHIBITION): % inhibition (inhibition rate)” value turned out to be 49.43%. Besides, in the test with mouse GPCRs [2], the EC50 is over 10 nM and the “Inhibition rate (in Figure 2)” value is on record as 49.43%.

`O=c1cc(-c2ccc(F)cc2)c2ccc(O)c(O)c2o1` [Derivative 1, 4-(4-Fluorophenyl)-7,8-dihydroxy-2 H-chromen-2-one] showed an EC50 in the test on mouse GPCRs [1] of 0.56 ± 0.02 nM. In the case of `O=c1cc(C(F)F)c2ccc(O)c(O)c2o1` [Derivative 2, 4-(Difluoromethyl)-7,8-dihydroxy-2H-chromen-2-one], in the test with mouse GPCRs [1], the EC50 is over 43.8 nM and the “EC50(nM) (% Activation): % Activation” value is 39.82%. For `O=c1cc(-c2ccccc2)c2ccc(O)c(O)c2o1` [Derivative 3, 7,8-Dihydroxy-4-phenyl-2H-chromen-2-one], in that order: over 43.8 nM and 35.75%. On to `CCc1cc(=O)oc2c(O)c(O)ccc12` [Derivative 4, 4-Ethyl-7,8-dihydroxy-2H-chromen-2-one], for which, in the test on mouse GPCRs [1], the “GPCR activation potency (in words)” value is on record as “completely lost their GPCRs-activation potency” and half-maximal inhibition (IC50) was put at 0.15 ± 0.01 nM.

Take `CCCc1cc(=O)oc2c(O)c(O)ccc12` [Derivative 5, 7,8-Dihydroxy-4-propyl-2H-chromen-2-one]: in the test on mouse GPCRs [1], the “GPCR activation potency (in words)” value is recorded as “completely lost their GPCRs-activation potency” and the IC50 was 3.77 ± 0.58 nM. For the compound `CC(=O)Oc1ccc2c(CCl)cc(=O)oc2c1OC(C)=O` [Derivative 7, 4-(Chloromethyl)-2-oxo-2H-chromene-7,8-diyl diacetate], in the test on mouse GPCRs [1], the “GPCR activation potency (in words)” value was “no GPCR activation potency” and half-maximal inhibition (IC50) required 0.02 ± 0.01 nM. `CCC(=O)Oc1ccc2c(CCl)cc(=O)oc2c1OC(=O)CC` [Derivative 8, 4-(Chloromethyl)-2-oxo-2H-chromene-7,8-diyl dipropionate]: in the test with mouse GPCRs [1], the “GPCR activation potency (in words)” value is “no GPCR activation potency” and the IC50 amounted to 6.86 ± 0.04 nM. For the compound `Cc1cc(=O)oc2cc(O)ccc12` [Derivative 9, 7-Hydroxy-4-methyl-2H-chromen-2-one], in the test with mouse GPCRs [1], the “GPCRs-inhibitory activity (in words)” value was “no GPCRs-inhibitory activity”, the EC50 came to 1.25 ± 0.89 nM and the 50% inhibitory concentration (IC50) worked out at 1.25 nM. As to `COc1cc(=O)oc2cc(O)ccc12` [Derivative 10, 7-Hydroxy-4-methoxy-2H-chromen-2-one], in the test on mouse GPCRs [1], the IC50 is over 48.5 nM and the “IC50(nM) (% INHIBITION): % inhibition (inhibition rate)” value is 33.58%. `CCc1c(C)c2ccc(O)cc2oc1=O` [Derivative 11, 3-Ethyl-7-hydroxy-4-methyl-2H-chromen-2-one] returned an EC50 in the test on mouse GPCRs [1] of 1.28 ± 1.07 nM.

In the test on mouse GPCRs [1], `Cc1c(C)c2ccc(O)cc2oc1=O` [Derivative 12, 7-Hydroxy-3,4-dimethyl-2H-chromen-2-one] returned an EC50 of 1.07 ± 0.33 nM. `O=c1cc(C(F)(F)F)c2ccc(O)cc2o1` [Derivative 13, 7-Hydroxy-4-(trifluoromethyl)-2H-chromen-2-one] had an IC50 in the test on mouse GPCRs [1] of 7.75 ± 7.23 nM.

For `Cc1c(Cl)c(=O)oc2cc(O)ccc12` [Derivative 14, 3-Chloro-7-hydroxy-4-methyl-2H-chromen-2-one], the EC50 in the test on mouse GPCRs [1] came out at 0.03 ± 0.02 nM. In the test on mouse GPCRs [1], `Cc1c(Cc2ccccc2)c(=O)oc2cc(O)ccc12` [Derivative 15, 3-Benzyl-7-hydroxy-4-methyl-2H-chromen-2-one] registered an EC50 of 3.6 ± 0.11 nM and an IC50 of 3.6 nM. In the test with mouse GPCRs [1], `Cc1c(F)c(=O)oc2cc(O)ccc12` [Derivative 16, 3-Fluoro-7-hydroxy-4-methyl-2H-chromen-2-one] displayed an EC50 of 0.24 ± 0.21 nM. On the same count and under the same terms, under `Cc1c(C#N)c(=O)oc2cc(O)ccc12` [Derivative 17, 7-Hydroxy-4-methyl-2-oxo-2H-chromene-3-carbonitrile] stands 0.03 ± 0.02 nM. Regarding `CCc1cc(=O)oc2cc(O)ccc12` [Derivative 18, 4-Ethyl-7-hydroxy-2H-chromen-2-one], in the test on mouse GPCRs [1], the “GPCRs-inhibitory activity (in words)” value is reported as “no GPCRs-inhibitory activity” and the EC50 stood at 0.03 ± 0.01 nM.

Regarding `O=c1cc(CCl)c2ccc(O)cc2o1` [Derivative 19, 4-(Chloromethyl)-7-hydroxy-2H-chromen-2-one], in the test with mouse GPCRs [1], the “GPCRs-inhibitory activity (in words)” value is given as “no GPCRs-inhibitory activity” and the EC50 is 4.22 ± 3.49 nM. Take `O=c1cc(-c2ccccc2)c2ccc(O)cc2o1` [Derivative 20, 7-Hydroxy-4-phenyl-2H-chromen-2-one]: in the test with mouse GPCRs [1], the EC50 is over 42 nM and the “EC50(nM) (% Activation): % Activation” value worked out at 34.41%. `Cc1cc(=O)oc2cc(Oc3ccnc(Cl)n3)ccc12` [Derivative 21, 7–((2–chloropyrimidin–4–yl)oxy)–4–methyl–2H–chromen–2–one]: in the test with mouse GPCRs [1], the EC50 is 0.02 ± 0.01 nM and the IC50 is 0.02 nM. The compound `COc1ccc2c(C)c(Cc3ccccc3)c(=O)oc2c1` [Derivative 22, 3-Benzyl-7-methoxy-4-methyl-2H-chromen-2-one] registered an IC50 in the test with mouse GPCRs [1] of 9.67 ± 2.59 nM. Take `CC(=O)Oc1ccc2c(C)c(Cc3ccccc3)c(=O)oc2c1` [Derivative 24, 3-Benzyl-4-methyl-2-oxo-2H-chromen-7-yl acetate]: in the test with mouse GPCRs [1], the EC50 was over 35.7 nM and the “EC50(nM) (% Activation): % Activation” value worked out at 32.82%. With `CCC(=O)Oc1ccc2c(C)c(Cc3ccccc3)c(=O)oc2c1` [Derivative 25, 3-Benzyl-4-methyl-2-oxo-2H-chromen-7-yl propionate], in the test on mouse GPCRs [1], the EC50 turned out to be 12 ± 9.47 nM.
